Reference: PMC4311985, “Molecular Surveillance of Antiviral Drug Resistance of Influenza A/H3N2 Virus in Singapore, 2009-2013” (PLoS ONE, 2015)

Assays:
[1] = test system: influenza A/H3N2 NA E119D; settings: ref [3] of supplement (Nguyen 2012); cited from earlier work
[2] = test system: influenza A/H3N2 NA N294S; settings: ref [3] of supplement (Nguyen 2012); cited from earlier work
[3] = test system: influenza A/H3N2 NA R292K; settings: ref [3] of supplement (Nguyen 2012); cited from earlier work
[4] = target: influenza A/H3N2 NA, D93G, Y155F, D251V mutations in combination (Influenza A virus (H3N2), UniProt V9SU56, D251V/D93G/Y155F); format: biochemical; settings: read-out: mean drug concentration required to inhibit 50% NA activity
[5] = target: influenza A/H3N2 NA, D93G single mutation (Influenza A virus (H3N2), UniProt V9SU56, D93G); format: biochemical; settings: read-out: mean drug concentration required to inhibit 50% NA activity
[6] = test system: influenza A/H3N2 NA E119V; settings: ref [3] of supplement (Nguyen 2012); cited from earlier work
[7] = target: influenza A/H3N2 NA, D93G, D251N mutations in combination (Influenza A virus (H3N2), UniProt V9SU56, D251N/D93G); format: biochemical; settings: read-out: mean drug concentration required to inhibit 50% NA activity
[8] = test system: influenza A/H3N2 NA E119I; settings: ref [3] of supplement (Nguyen 2012); cited from earlier work
[9] = test system: influenza A/H3N2 NA E119V+I222V; settings: ref [3] of supplement (Nguyen 2012); cited from earlier work
[10] = test system: influenza A/H3N2 NA Q226H; settings: ref [2] of supplement (Monto 2006); cited from earlier work
[11] = test system: influenza A/H3N2 NA R371K; settings: ref [3] of supplement (Nguyen 2012); cited from earlier work
[12] = test system: influenza A/H3N2 NA E119V+I222L; settings: ref [3] of supplement (Nguyen 2012); cited from earlier work
[13] = test system: influenza A/H3N2 NA E276D; settings: ref [3] of supplement (Nguyen 2012); cited from earlier work
[14] = test system: influenza A/H3N2 NA D151E; settings: ref [3] of supplement (Nguyen 2012); cited from earlier work
[15] = test system: influenza A/H3N2 NA R224K; settings: ref [3] of supplement (Nguyen 2012); cited from earlier work
[16] = test system: influenza A/H3N2 NA E41G; settings: ref [2] of supplement (Monto 2006); cited from earlier work
[17] = test system: influenza A/H3N2 NA Q136K; settings: ref [3] of supplement (Nguyen 2012); cited from earlier work
[18] = test system: influenza A/H3N2 NA D151V; settings: ref [4] of supplement (Sheu 2008); cited from earlier work
[19] = test system: influenza A/H3N2 NA D151A; settings: ref [4] of supplement (Sheu 2008); cited from earlier work
[20] = test system: influenza A/H3N2 NA I222T; settings: cited from earlier work

CCC(CC)[C@H](NC(C)=O)[C@@H]1[C@H](O)[C@@H](C(=O)O)C[C@H]1N=C(N)N [Peramivir, peramivir]
Drug susceptibility by NA inhibition assays (WHO class) [1]: S (<10-fold increase as susceptible (“S”)) | IC50 fold-change compared to wildtype [1]: 2 fold | Drug susceptibility by NA inhibition assays (WHO class) [2]: S (<10-fold increase as susceptible (“S”)) | IC50 fold-change compared to wildtype [2]: 1 fold | Drug susceptibility by NA inhibition assays (WHO class) [3]: DS/R | IC50 fold-change compared to wildtype [3]: 14-719 fold | IC50 [4]: 0.2 ± 0.1 nM | IC50 [5]: 0.2 ± 0.1 nM | Drug susceptibility by NA inhibition assays (WHO class) [6]: S (<10-fold increase as susceptible (“S”)) | IC50 fold-change compared to wildtype [6]: 1-3 fold | IC50 [7]: 0.4 nM | Drug susceptibility by NA inhibition assays (WHO class) [8]: S (<10-fold increase as susceptible (“S”)) | IC50 fold-change compared to wildtype [8]: 3 fold | Drug susceptibility by NA inhibition assays (WHO class) [9]: S (<10-fold increase as susceptible (“S”)) | IC50 fold-change compared to wildtype [9]: 7 fold

CC(=O)N[C@H]1[C@H]([C@H](O)[C@H](O)CO)OC(C(=O)O)=C[C@@H]1N=C(N)N [Zanamivir, zanamivir]
Drug susceptibility by NA inhibition assays (WHO class) [10]: S (<10-fold increase as susceptible (“S”)) | Drug susceptibility by NA inhibition assays (WHO class) [11]: DS (10–100-fold increase as decreased susceptibility (“DS”)) | Drug susceptibility by NA inhibition assays (WHO class) [12]: S (<10-fold increase as susceptible (“S”)) | Drug susceptibility by NA inhibition assays (WHO class) [1]: DS (10–100-fold increase as decreased susceptibility (“DS”)) | Drug susceptibility by NA inhibition assays (WHO class) [2]: S (<10-fold increase as susceptible (“S”)) | Drug susceptibility by NA inhibition assays (WHO class) [3]: S/DS/R | Drug susceptibility by NA inhibition assays (WHO class) [13]: R (>100-fold increase as resistant (“R”)) | Drug susceptibility by NA inhibition assays (WHO class) [14]: S (<10-fold increase as susceptible (“S”)) | Drug susceptibility by NA inhibition assays (WHO class) [15]: DS (10–100-fold increase as decreased susceptibility (“DS”)) | Drug susceptibility by NA inhibition assays (WHO class) [16]: S (<10-fold increase as susceptible (“S”)) | Drug susceptibility by NA inhibition assays (WHO class) [6]: S (<10-fold increase as susceptible (“S”)) | Drug susceptibility by NA inhibition assays (WHO class) [17]: DS (10–100-fold increase as decreased susceptibility (“DS”)) | Drug susceptibility by NA inhibition assays (WHO class) [8]: DS (10–100-fold increase as decreased susceptibility (“DS”)) | Drug susceptibility by NA inhibition assays (WHO class) [18]: DS (10–100-fold increase as decreased susceptibility (“DS”)) | Drug susceptibility by NA inhibition assays (WHO class) [9]: S (<10-fold increase as susceptible (“S”)) | Drug susceptibility by NA inhibition assays (WHO class) [19]: DS (10–100-fold increase as decreased susceptibility (“DS”))

CCOC(=O)C1=C[C@@H](OC(CC)CC)[C@H](NC(C)=O)[C@@H](N)C1 [Oseltamivir, oseltamivir]
Drug susceptibility by NA inhibition assays (WHO class) [10]: DS (10–100-fold increase as decreased susceptibility (“DS”)) | Drug susceptibility by NA inhibition assays (WHO class) [11]: DS (10–100-fold increase as decreased susceptibility (“DS”)) | Drug susceptibility by NA inhibition assays (WHO class) [12]: R (>100-fold increase as resistant (“R”)) | Drug susceptibility by NA inhibition assays (WHO class) [1]: S (<10-fold increase as susceptible (“S”)) | Drug susceptibility by NA inhibition assays (WHO class) [2]: R (>100-fold increase as resistant (“R”)) | Drug susceptibility by NA inhibition assays (WHO class) [3]: R (>100-fold increase as resistant (“R”)) | increase in IC50 compared to that of the wild-type ([20]; I222T in influenza A/H3N2): 16 fold | Drug susceptibility by NA inhibition assays (WHO class) ([20]; I222T, ref [5] of supplement (Pizzorno 2014)): DS (10–100-fold increase as decreased susceptibility (“DS”)) | Drug susceptibility by NA inhibition assays (WHO class) [13]: DS (10–100-fold increase as decreased susceptibility (“DS”)) | Drug susceptibility by NA inhibition assays (WHO class) [14]: DS (10–100-fold increase as decreased susceptibility (“DS”)) | Drug susceptibility by NA inhibition assays (WHO class) [15]: R (>100-fold increase as resistant (“R”)) | Drug susceptibility by NA inhibition assays (WHO class) [16]: DS (10–100-fold increase as decreased susceptibility (“DS”)) | Drug susceptibility by NA inhibition assays (WHO class) [6]: DS/R | Drug susceptibility by NA inhibition assays (WHO class) [17]: S (<10-fold increase as susceptible (“S”)) | Drug susceptibility by NA inhibition assays (WHO class) [8]: R (>100-fold increase as resistant (“R”)) | Drug susceptibility by NA inhibition assays (WHO class) [18]: S (<10-fold increase as susceptible (“S”)) | Drug susceptibility by NA inhibition assays (WHO class) [9]: R (>100-fold increase as resistant (“R”)) | Drug susceptibility by NA inhibition assays (WHO class) [19]: S (<10-fold increase as susceptible (“S”))
